From patent US20230123334A1, “AMINO LIPID COMPOUND, PREPARATION METHOD THEREFOR, AND APPLICATION THEREOF” (SHENZHEN SHENXIN BIOTECHNOLOGY CO., LTD., priority 2020, published 2023)

Assays:
HEK293 cells [1] = assay: Preliminary screening as mRNA vectors, EGFP mRNA transfection of HEK293 cells; format: cell-based; details: HEK293 cells, 96-well plates, EGFP mRNA 50 ng per well; percentage of GFP fluorescent cells relative to total number of cells (Hoechst)
In short: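 Each well of HEK293 cells received 50 ng of EGFP mRNA. Efficiency was expressed as percent GFP-expressing cells over Hoechst-defined total cell number.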

HEK293 cells [2] = assay: Preliminary screening as DNA vectors, GFP transfection of HEK293 cells; format: cell-based; details: HEK293 cells; lipid/DOPE liposome with 75 ng plasmid DNA (psin-EGFP-IRES-Puro); number of cells expressing GFP divided by total number of nuclei (Hoechst)
In short: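 Lipid + DOPE liposomes (NaOAc, pH 5.6) complexed w/ 75 ng psin-EGFP-IRES-Puro, 30 min RT; added to 3-5×10^4 HEK293/well, 37° C. Hoechst 0.2 μg/mL at 20-24 h, imaged after further 20-24 h. Efficiency = GFP+ cells / total nuclei.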

SMILES	Absolute mRNA transfection efficiency in HEK293 cells (HEK293 cells [1]) [%]	Absolute DNA transfection efficiency in HEK293 cells (HEK293 cells [2]) [%]
CCCCCCCCNc1nc(NCCCCCC)nc(NCCN2CCCCC2)n1 [Compound N6N8D4]	0.0	0.0
CCCCCCCCCCCCNc1nc(NCCCCCCCCCCC)nc(NCCN(CC)CC)n1 [Compound N11N12D7]	2.4	0.0
CCCCCCCCCCCCN(CCCCCCCCCCCC)c1nc(NCCCCCCCCC)nc(NCCN2CCOCC2)n1 [N9^2N12D2]	1.3	0.0
CCCCCCCCCCCCCCCCCCSc1nc(NCCCN2CCOCC2)nc(SCCCCCCCCCCCCCC)n1 [Compound S14S18D8]	0.3	0.2
CCCCCCCCCCCCCCSc1nc(NCCN2CCOCC2)nc(SCCCCCCCC)n1 [Compound S8S14D2]	0.4	18.5
CCCCCCCCCCCCCCCCNc1nc(NCCCCCCCCCCCC)nc(NCCN(CC)CC)n1 [Compound N12N16D7]	0.3	0.4
CCCCCCCCCCCCCCCNc1nc(NCCCCCCCCCCCCC)nc(NCCN(C)C)n1 [Compound N13N15D1]	1.4	1.5
CCCCCCCCCCCCCCCCCCSc1nc(NCCN2CCN(C)CC2)nc(SCCCCCCCCCCCC)n1 [Compound S12S18D5]	0.0	0.7
CCCCCCCCCCCCNc1nc(NCCCCCCC)nc(NCCCN2CCN(C)CC2)n1 [Compound N7N12D9]	0.0	0.1
CCCCCCCCCNc1nc(NCCCCCCCC)nc(NCCCN2CCOCC2)n1 [Compound N8N9D8]	0.0	0.0
CCCCCCCCCCCCN(CCCCCCCCCCCC)c1nc(NCCCN2CCOCC2)nc(N(CCCCCCCCCCCC)CCCCCCCCCCCC)n1 [2N12^2N12D8]	0.0	0.1
CCCCCCCCCNc1nc(NCCCCCCCC)nc(NCCN(CC)CC)n1 [Compound N8N9D7]	0.0	0.0
CCCCCCCCCCCCNc1nc(NCCCCCC)nc(NCCN(CC)CC)n1 [Compound N6N12D7]	0.0	0.0
CCCCCCCCCCCCCCCCSc1nc(NCCCN2CCOCC2)nc(SCCCCCCCCCCCCCCC)n1 [Compound S15S16D8]	0.0	0.0
CCCCCCCCCCCCCCSc1nc(NCCN2CCCCC2)nc(SCCCCCCCCCC)n1 [Compound S10S14D4]	0.2	5.9
CCCCCCCCCCCCCCCCCCSc1nc(NCCCN(C)C)nc(SCCCCCCCCCC)n1 [Compound S10S18D6]	19.9	22.4
CCCCCCCCCCCCCCCNc1nc(NCCCCCCCC)nc(NCCN2CCN(C)CC2)n1 [Compound N8N15D5]	0.2	0.6
CCCCCCCCCCSc1nc(NCCN2CCN(C)CC2)nc(SCCCCCCCCC)n1 [Compound S9S10D5]	61.4	27.6
CCCCCCCCCCCNc1nc(NCCCCCC)nc(NCCN2CCOCC2)n1 [Compound N6N11D2]	0.0	0.0

SMILES	Absolute mRNA transfection efficiency in HEK293 cells (HEK293 cells [1]) [%]	Absolute DNA transfection efficiency in HEK293 cells (HEK293 cells [2]) [%]
CCCCCCCCNc1nc(NCCCCCCCC)nc(NCCN2CCCC2)n1 [Compound N8N8D3]	0.4	1.8
CCCCCCCCCNc1nc(NCCCCCC)nc(NCCCN(C)C)n1 [Compound N6N9D6]	0.2	0.0
CCCCCCCCCCSc1nc(NCCN2CCCCC2)nc(SCCCCCCCCC)n1 [Compound S9S10D4]	4.1	13.3
CCCCCCCCNc1nc(NCCCCCCCC)nc(NCCN2CCN(C)CC2)n1 [Compound N8N8D5]	0.0	0.0
CCCCCCCCCCCCCCCNc1nc(NCCCCCC)nc(NCCN2CCN(C)CC2)n1 [Compound N6N15D5]	0.0	0.0
CCCCCCCCCCCCCCCCSc1nc(NCCN(C)C)nc(SCCCCCCCCCCCC)n1 [Compound S12S16D1]	0.0	0.6
CCCCCCCCCCSc1nc(NCCCN(C)C)nc(SCCCCCCCCC)n1 [Compound S9S10D6]	74.6	21.2
CCCCCCCCCCCCNc1nc(NCCCCCC)nc(NCCCN2CCN(C)CC2)n1 [Compound N6N12D9]	0.0	0.0
CCCCCCCCCCCCCNc1nc(NCCCCCCCCCCC)nc(NCCN2CCN(C)CC2)n1 [Compound N11N13D5]	0.2	0.1
CCCCCCCCCCCCNc1nc(NCCCCCCCCC)nc(NCCN2CCCCC2)n1 [Compound N9N12D4]	2.4	0.0
CCCCCCCCCCCCCCCCCCSc1nc(NCCCN2CCN(C)CC2)nc(SCCCCCCCCCCCCCC)n1 [Compound S14S18D9]	0.6	0.5
CCCCCCCCCCCCCCCSc1nc(NCCN2CCCC2)nc(SCCCCCCCCCCCC)n1 [Compound S12S15D3]	9.7	2.9
CCCCCCCCNc1nc(NCCCCCCC)nc(NCCN2CCCC2)n1 [Compound N7N8D3]	3.7	0.5
CCCCCCCCCCCCSc1nc(NCCCN(C)C)nc(SCCCCCCCCCCC)n1 [Compound S11S12D6]	21.5	5.2
CCCCCCCCCCCCSc1nc(NCCN2CCOCC2)nc(SCCCCCCCCCCC)n1 [Compound S11S12D2]	0.0	0.1
CCCCCCCCCCCCCCCCNc1nc(NCCCCCCCCCCC)nc(NCCN2CCCC2)n1 [Compound N11N16D3]	3.6	1.2
CCCCCCCCCCCCN(CCCCCCCCCCCC)c1nc(NCCCCCCCCC)nc(NCCN2CCCC2)n1 [N9^2N12D3]	2.3	0.4
CCCCCCCCCCCNc1nc(NCCCCCCCCCCC)nc(NCCN2CCCCC2)n1 [Compound N11N11D4]	4.1	0.0
